Measurements: patent US8835509B2, “Self emulsifying drug delivery system for a curcuminoid based composition” (Arbro Pharmaceuticals Ltd., priority 2010, dated 2014)
In brackets after ≈: the same amount, converted by molar mass. Like-named read-outs stand apart in the source and are kept apart here.

Legend:
[1] = rat intestine in vitro, cited from earlier work
[2] = rats, oral administration of 400 mg of curcumins, cited from earlier work
[3] = Solubility test of curcumin in oils, surfactants, milk, BSA and casein; assay type: physicochemical; conditions: thermodynamic from solid
Procedure: The solubility of curcumin in a number of oils such as citronella oil, castor oil, ethyl oleate, and palm rose oil, coconut oil, CAPRYOL™ 90 and a number of surfactants such as TWEEN® 80, CREMOPHOR® EL, PEG 200 and TRANSCUTOL® HP were determined in order to find out the appropriate oils and surfactants as compositions of SNEDDS. Solubility was also determined in milk, BSA and casein.
An excess amount of curcumin was added to 5 ml of oil or surfactant solutions. The resultant mixture was shaken reciprocally at 37° C. for 72 h, followed by centrifugation at 12000 rpm for 10 min. The supernatant was filtered through a membrane filter (0.45 μm) to remove the remaining insoluble curcumin. After the appropriate dilution with methanol, the drug concentration in the filtrate was quantified by HPLC.

Which absorption of curcumin ([1]; present as micelles) does the source give for `COc1cc(/C=C/C(=O)/C=C(O)/C=C/c2ccc(O)c(OC)c2)ccc1O` [Curcumin, curcumin] here?
Its absorption of curcumin is 56%.

And the absorption of curcumin ([1]; present in a free form)?
Its absorption of curcumin is 47%.

And the “curcumin in portal blood” value ([2]; 15 minute to 24 hour after administration)?
The value was “trace amount”.

What about the “curcumin in heart blood” value [2] of the same molecule?
Its value is “no curcumin was found”.

What about the solubility at 72 h ([3]; 37 °C, plasma or biological fluid, in Casein, read-out: Solubility of Curcumin in milk, BSA and Casein) of the same molecule?
Its solubility at 72 h is 14 µg/mL (≈ 0.038 mM).

And the solubility at 72 h ([3]; 37 °C, plasma or biological fluid, in Milk, read-out: Solubility of Curcumin in milk, BSA and Casein)?
Its solubility at 72 h is 23800 µg/mL (≈ 64.5 mM).

What about the solubility at 72 h ([3]; Almond oil, oil or lipid, in Almond, 37° C., 72 h, read-out: Solubility of Curcumin in oils, Sol) of the same molecule?
Its solubility at 72 h is 1250 µg/mL (≈ 3.39 mM).

And the solubility at 72 h ([3]; Castor oil, oil or lipid, in Castor, 37° C., 72 h, read-out: Solubility of Curcumin in oils, Sol)?
Its solubility at 72 h is 4420 µg/mL (≈ 12 mM).

What about the solubility at 72 h ([3]; Citronella oil, oil or lipid, in Citronella, 37° C., 72 h, read-out: Solubility of Curcumin in oils, Sol) of the same molecule?
The solubility at 72 h was 13200 µg/mL (≈ 35.8 mM).

What about the solubility at 72 h ([3]; Lavender oil, oil or lipid, in Lavender, 37° C., 72 h, read-out: Solubility of Curcumin in oils, Sol) of the same molecule?
The solubility at 72 h was 3440 µg/mL (≈ 9.35 mM).

What about the solubility at 72 h ([3]; Palm Rose oil, oil or lipid, in Palm Rose, 37° C., 72 h, read-out: Solubility of Curcumin in oils, Sol) of the same molecule?
Its solubility at 72 h is 6030 µg/mL (≈ 16.4 mM).

And the solubility at 72 h ([3]; aqueous with cosolvent or surfactant or cyclodextrin, in TWEEN® 60 (100% conc), 37° C., 72 h, read-out: Solubility of Curcumin in surfactants, Sol)?
The solubility at 72 h was 34 µg/mL (≈ 0.0923 mM).

What about the solubility at 72 h ([3]; aqueous with cosolvent or surfactant or cyclodextrin, in TWEEN® 80 (100% conc), 37° C., 72 h, read-out: Solubility of Curcumin in surfactants, Sol) of the same molecule?
Its solubility at 72 h is 484 µg/mL (≈ 1.31 mM).

What about the solubility at 72 h ([3]; bovine, 37 °C, plasma or biological fluid, in BSA, read-out: Solubility of Curcumin in milk, BSA and Casein) of the same molecule?
Its solubility at 72 h is 24 µg/mL (≈ 0.0651 mM).

And the solubility at 72 h ([3]; coconut oil, oil or lipid, in Cocconut Oil, 37° C., 72 h, read-out: Solubility of Curcumin in oils, Sol)?
The solubility at 72 h was 1680 µg/mL (≈ 4.57 mM).

And the solubility at 72 h ([3]; oil or lipid, in Arachis Oil, 37° C., 72 h, read-out: Solubility of Curcumin in oils, Sol)?
The solubility at 72 h was 160 µg/mL (≈ 0.434 mM).

What about the solubility at 72 h ([3]; oil or lipid, in CAPRYOL™ 90, 37° C., 72 h, read-out: Solubility of Curcumin in oils, Sol) of the same molecule?
The solubility at 72 h was 7580 µg/mL (≈ 20.6 mM).

And the solubility at 72 h ([3]; oil or lipid, in Emu oil, 37° C., 72 h, read-out: Solubility of Curcumin in oils, Sol)?
Its solubility at 72 h is 1580 µg/mL (≈ 4.3 mM).

And the solubility at 72 h ([3]; oil or lipid, in Ethyl Oleate, 37° C., 72 h, read-out: Solubility of Curcumin in oils, Sol)?
Its solubility at 72 h is 589 µg/mL (≈ 1.6 mM).

And the solubility at 72 h ([3]; oil or lipid, in Glyc Mono ol, 37° C., 72 h, read-out: Solubility of Curcumin in oils, Sol)?
Its solubility at 72 h is 154 µg/mL (≈ 0.418 mM).

And the solubility at 72 h ([3]; oil or lipid, in IPM, 37° C., 72 h, read-out: Solubility of Curcumin in oils, Sol)?
Its solubility at 72 h is 1130 µg/mL (≈ 3.06 mM).

What about the solubility at 72 h ([3]; oil or lipid, in Labrafilm F 1944, 37° C., 72 h, read-out: Solubility of Curcumin in oils, Sol) of the same molecule?
The solubility at 72 h was 2560 µg/mL (≈ 6.95 mM).

And the solubility at 72 h ([3]; oil or lipid, in Labrafilm F2125, 37° C., 72 h, read-out: Solubility of Curcumin in oils, Sol)?
The solubility at 72 h was 3590 µg/mL (≈ 9.75 mM).

And the solubility at 72 h ([3]; oil or lipid, in Lauroglycol, 37° C., 72 h, read-out: Solubility of Curcumin in oils, Sol)?
Its solubility at 72 h is 2610 µg/mL (≈ 7.09 mM).

And the solubility at 72 h ([3]; oil or lipid, in Light Paraffin, 37° C., 72 h, read-out: Solubility of Curcumin in oils, Sol)?
The solubility at 72 h was 7 µg/mL (≈ 0.019 mM).

What about the solubility at 72 h ([3]; oil or lipid, in Linseed Oil, 37° C., 72 h, read-out: Solubility of Curcumin in oils, Sol) of the same molecule?
The solubility at 72 h was 277 µg/mL (≈ 0.752 mM).

What about the solubility at 72 h ([3]; olive oil, oil or lipid, in Oilve, 37° C., 72 h, read-out: Solubility of Curcumin in oils, Sol) of the same molecule?
Its solubility at 72 h is 501 µg/mL (≈ 1.36 mM).

What about the solubility at 72 h ([3]; organic solvent or mixture, in CREMOPHOR® EL (100% conc), 37° C., 72 h, read-out: Solubility of Curcumin in surfactants, Sol) of the same molecule?
The solubility at 72 h was 36600 µg/mL (≈ 99.4 mM).

And the solubility at 72 h ([3]; organic solvent or mixture, in CREMOPHOR® RH (100% conc), 37° C., 72 h, read-out: Solubility of Curcumin in surfactants, Sol)?
The solubility at 72 h was 38700 µg/mL (≈ 105 mM).

And the solubility at 72 h ([3]; organic solvent or mixture, in LABRASOL® (100% conc), 37° C., 72 h, read-out: Solubility of Curcumin in surfactants, Sol)?
Its solubility at 72 h is 846 µg/mL (≈ 2.3 mM).

And the solubility at 72 h ([3]; organic solvent or mixture, in PEG 200 (100% conc), 37° C., 72 h, read-out: Solubility of Curcumin in surfactants, Sol)?
Its solubility at 72 h is 1040 µg/mL (≈ 2.84 mM).

And the solubility at 72 h ([3]; organic solvent or mixture, in PEG 400 (100% conc), 37° C., 72 h, read-out: Solubility of Curcumin in surfactants, Sol)?
Its solubility at 72 h is 512 µg/mL (≈ 1.39 mM).

What about the solubility at 72 h ([3]; organic solvent or mixture, in PEG 600 (100% conc), 37° C., 72 h, read-out: Solubility of Curcumin in surfactants, Sol) of the same molecule?
Its solubility at 72 h is 123 µg/mL (≈ 0.334 mM).

What about the solubility at 72 h ([3]; organic solvent or mixture, in TRANSCUTOL® HP (100% conc), 37° C., 72 h, read-out: Solubility of Curcumin in surfactants, Sol) of the same molecule?
Its solubility at 72 h is 96400 µg/mL (≈ 262 mM).
